Structures can show the parent of a compound that is named as a salt.
Test system: Aβ1-42 production
Assay: Cellular assay for inhibition of Aβ1-42 production (H4 APP751 SWE clone 8.20)
Assay type: cell-based
Settings: 19 h, H4 APP751 SWE clone 8.20 cells, 19 h incubation; class symbols; read-out: Activity Rating (Aβ42 cellular IC50)
In short: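 Compound-treated cells were incubated 19 h at 37 °C in 5% CO2. Aβ42 in the cell plate was detected overnight at 4 °C with an Aβ42 neoepitope antibody (565, Wallac-labelled, 0.8 ng/well) plus N-terminal antibody 26D6 (APC, 75 ng/well) in 40 mM Tris-HCl pH 7.4, 0.2% BSA. IC50s came from curve fitting.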

SMILES | IC50 [µM]
COc1cc(Nc2nc3c(c(N(C)C)n2)COCC3c2ccc(F)cc2)ccc1-n1cnc(Cl)c1 (racemic) [Example 61, N2-(4-(4-chloro-1H-imidazol-1-yl)-3-methoxyphenyl)-8-(4-fluorophenyl)-N4,N4-dimethyl-7,8-dihydro-5H-pyrano[4,3-d]pyrimidine-2,4-diamine] | 0.01 to 0.1
CCNc1nc(Nc2ccc(-n3cnc(Cl)c3)c(OC)c2)nc2c1CN(C(=O)CN(C)C)CC2c1ccccc1 (stereo not shown) [Example 135, 1-(2-(4-(4-chloro-1H-imidazol-1-yl)-3-methoxyphenylamino)-4-(ethylamino)-8-phenyl-7,8-dihydropyrido[4,3-d]pyrimidin-6(5H)-yl)-2-(dimethylamino)ethanone] | 0.01 to 0.1
CNc1nc(Nc2ccc(-n3cnc(Cl)c3)c(OC)c2)nc2c1CCOC2c1ccccc1 (stereo not shown) [Example 85, N2-(4-(4-chloro-1H-imidazol-1-yl)-3-methoxyphenyl)-N4-methyl-8-phenyl-6,8-dihydro-5H-pyrano[3,4-d]pyrimidine-2,4-diamine] | 0.0015 to 0.0099
CNc1nc(Nc2ccc(-n3cnc(Cl)c3)c(OC)c2)nc2c1COCC2c1ccccc1 (single isomer, unassigned) [Example 51A, N^2-(4-(4-chloro-1H-imidazol-1-yl)-3-methoxyphenyl)-N^4-methyl-8-phenyl-7,8-dihydro-5H-pyrano[4,3-d]pyrimidine-2,4-diamine] | 0.0015 to 0.0099
COc1cc(Nc2nc3c(c(N4CC(F)(F)C4)n2)COCC3c2ccc(F)c(F)c2)ccc1-n1cnc(Cl)c1 (racemic) [Example 114, N-(4-(4-chloro-1H-imidazol-1-yl)-3-methoxyphenyl)-4-(3,3-difluoroazetidin-1-yl)-8-(3,4-difluorophenyl)-7,8-dihydro-5H-pyrano[4,3-d]pyrimidin-2-amine, TFA] | 0.0015 to 0.0099
CNc1nc(Nc2nc3cc(C#N)ccc3[nH]2)nc2c1CCC2c1ccccc1 (stereo not shown) [Example 232, 2-(4-(methylamino)-7-phenyl-6,7-dihydro-5H-cyclopenta[d]pyrimidin-2-ylamino)-1H-benzo[d]imidazole-5-carbonitrile] | > 1
CNc1nc(Nc2ccc(-n3cnc(C)n3)c(OC)c2)nc2c1CC[C@H]2c1cccc(OC)c1 (single isomer, unassigned) [Example 272A] | 0.01 to 0.1
CNc1nc(Nc2ccc(-n3cnc(C)n3)c(OC)c2)nc2c1CCC2c1ccc(F)cc1 (single isomer, unassigned) [Example 44A, 7-(4-fluorophenyl)-N2-(3-methoxy-4-(3-methyl-1H-1,2,4-triazol-1-yl)phenyl)-N4-methyl-6,7-dihydro-5H-cyclopenta[d]pyrimidine-2,4-diamine] | 0.0015 to 0.0099
CCNc1nc(Nc2ccc(-n3cnc(C)n3)c(F)c2)nc2c1CN(CC(F)F)CC2c1ccccc1 (stereo not shown) [Example 195B, 6-(2,2-difluoroethyl)-N4-ethyl-N2-(3-fluoro-4-(3-methyl-1H-1,2,4-triazol-1-yl)phenyl)-8-phenyl-5,6,7,8-tetrahydropyrido[4,3-d]pyrimidine-2,4-diamine] | 0.1 to 1
CCN(C)c1nc(Nc2ccc(-n3cnc(Cl)c3)c(OC)c2)nc2c1COCC2c1ccccc1 (racemic) [Example 52, N^2-(4-(4-Chloro-1H-imidazol-1-yl)-3-methoxyphenyl)-N^4-ethyl-N^4-methyl-8-phenyl-7,8-dihydro-5H-pyrano[4,3-d]pyrimidine-2,4-diamine] | 0.01 to 0.1
CNc1nc(Nc2ccc3[nH]ccc3c2)nc2c1CCC2c1ccccc1 (stereo not shown) [Example 251, N2-(1H-indol-5-yl)-N4-methyl-7-phenyl-6,7-dihydro-5H-cyclopenta[d]pyrimidine-2,4-diamine] | > 1
COc1cc(Nc2nc3c(c(N(C)C)n2)CCC3c2ccc(Cl)cc2)ccc1-n1cnc(Cl)c1 (stereo not shown) [Example 92, N^2-(4-(4-Chloro-1H-imidazol-1-yl)-3-methoxyphenyl)-7-(4-chlorophenyl)-N^4,N^4-dimethyl-6,7-dihydro-5H-cyclopenta[d]pyrimidine-2,4-diamine] | 0.01 to 0.1
Cc1ncnn1-c1ccc(Nc2nc3c(c(N(C)C)n2)COCC3c2ccc(Cl)cc2)cc1F (stereo not shown) [Example 67, 8-(4-chlorophenyl)-N^2-(3-fluoro-4-(5-methyl-1H-1,2,4-triazol-1-yl)phenyl)-N^4,N^4-dimethyl-7,8-dihydro-5H-pyrano[4,3-d]pyrimidine-2,4-diamine] | 0.01 to 0.1
CCNc1nc(Nc2ccc(-n3ncnc3C)c(F)c2)nc2c1COCC2c1ccc(F)cc1 (stereo not shown) [Example 59A, N4-ethyl-N2-(3-fluoro-4-(5-methyl-1H-1,2,4-triazol-1-yl)phenyl)-8-(4-fluorophenyl)-7,8-dihydro-5H-pyrano[4,3-d]pyrimidine-2,4-diamine] | 0.0015 to 0.0099
CNc1nc(Nc2ccc(-n3cnc(C)n3)c(OC)c2)nc2c1CCC2c1ccc(N(C)C)cc1 (stereo not shown) [Example 273, 7-(4-(dimethylamino)phenyl)-N2-(3-methoxy-4-(3-methyl-1H-1,2,4-triazol-1-yl)phenyl)-N4-methyl-6,7-dihydro-5H-cyclopenta[d]pyrimidine-2,4-diamine] | 0.01 to 0.1
COc1cc(Nc2nc3c(c(N4CCC4)n2)CCC3c2ccc(OC(F)(F)F)cc2)ccc1-n1cnc(Cl)c1 (racemic) [Example 101, 4-(Azetidin-1-yl)-N-(4-(4-chloro-1H-imidazol-1-yl)-3-methoxyphenyl)-7-(4-(trifluoromethoxy)phenyl)-6,7-dihydro-5H-cyclopenta[d]pyrimidin-2-amine] | 0.01 to 0.1
COc1cc(Nc2nc3c(c(N4CC(F)(F)C4)n2)CNCC3c2ccc(F)cc2)ccc1-n1cnc(Cl)c1 (stereo not shown) [Example 162, N-(4-(4-chloro-1H-imidazol-1-yl)-3-methoxyphenyl)-4-(3,3-difluoroazetidin-1-yl)-8-(4-fluorophenyl)-5,6,7,8-tetrahydropyrido[4,3-d]pyrimidin-2-amine] | 0.01 to 0.1
COc1cc(Nc2nc3c(c(N4CCC(F)(F)CC4)n2)CCC3c2ccc(F)cc2)ccc1-n1cnc(Cl)c1 (stereo not shown) [Example 39B, N-(4-(4-chloro-1H-imidazol-1-yl)-3-methoxyphenyl)-4-(4,4-difluoropiperidin-1-yl)-7-(4-fluorophenyl)-6,7-dihydro-5H-cyclopenta[d]pyrimidin-2-amine] | 0.1 to 1
CCNc1nc(Nc2ccc(-n3cnc(Cl)c3)c(OC)c2)nc2c1COCC2c1ccc(F)cc1 (racemic) [Example 56, N2-(4-(4-chloro-1H-imidazol-1-yl)-3-methoxyphenyl)-N4-ethyl-8-(4-fluorophenyl)-7,8-dihydro-5H-pyrano[4,3-d]pyrimidine-2,4-diamine] | 0.01 to 0.1
CCNc1nc(Nc2ccc(-n3cnc(Cl)c3)c(OC)c2)nc2c1CN(S(C)(=O)=O)CC2c1ccccc1 (stereo not shown) [Example 134, N2-(4-(4-chloro-1H-imidazol-1-yl)-3-methoxyphenyl)-N4-ethyl-6-(methylsulfonyl)-8-phenyl-5,6,7,8-tetrahydropyrido[4,3-d]pyrimidine-2,4-diamine] | 0.0015 to 0.0099

Same assay, conditions: 19 h, H4 APP751 SWE clone 8.20 cells, 19 h incubation; read-out: Activity Rating (Aβ42 cellular IC50), numeric value

SMILES | IC50 [µM]
CNc1nc(Nc2ccc(C#N)nc2)nc2c1CCC2c1ccccc1 (stereo not shown) [Example 230, 5-(4-(methylamino)-7-phenyl-6,7-dihydro-5H-cyclopenta[d]pyrimidin-2-ylamino)picolinonitrile] | 0.042

Same assay, conditions: H4 APP751 SWE clone 8.20 cells, 19 h incubation; class symbols; read-out: Activity Rating (Aβ42 cellular IC50)

SMILES | IC50 [µM]
COc1cc(Nc2nc3c(c(N4CCCC4C)n2)CCC3c2ccc(F)cc2)ccc1-n1cnc(Cl)c1 (single isomer, unassigned) [Example 20B, N-(4-(4-chloro-1H-imidazol-1-yl)-3-methoxyphenyl)-7-(4-fluorophenyl)-4-(2-methylpyrrolidin-1-yl)-6,7-dihydro-5H-cyclopenta[d]pyrimidin-2-amine] | 0.01 to 0.1
CCN(C)c1nc(Nc2ccc(-n3cnc(Cl)c3)c(OC)c2)nc2c1CCCC2c1ccccc1 (single isomer, unassigned) [Example 124B, N^2-(4-(4-Chloro-1H-imidazol-1-yl)-3-methoxyphenyl)-N^4-ethyl-N^4-methyl-8-phenyl-5,6,7,8-tetrahydroquinazoline-2,4-diamine] | 0.01 to 0.1
CCNc1nc(Nc2ccc(-n3cnc(Cl)c3)c(OC)c2)nc2c1CCN(CC)C2c1ccc(F)cc1 (single isomer, unassigned) [Example 169A, N2-(4-(4-chloro-1H-imidazol-1-yl)-3-methoxyphenyl)-N4,7-diethyl-8-(4-fluorophenyl)-5,6,7,8-tetrahydropyrido[3,4-d]pyrimidine-2,4-diamine] | 0.0015 to 0.0099
CNc1nc(Nc2ccc(-n3cnc(Cl)c3)c(OC)c2)nc2c1CCC2c1cc(F)cc(F)c1 (stereo not shown) [Example 102B, N^2-(4-(4-Chloro-1H-imidazol-1-yl)-3-methoxyphenyl)-7-(3,5-difluorophenyl)-N^4-methyl-6,7-dihydro-5H-cyclopenta[d]pyrimidine-2,4-diamine] | 0.01 to 0.1
CNc1nc(Nc2ccc(-n3cnc(C)n3)c(OC)c2)nc2c1CCC2c1ccc(F)cc1F (single isomer, unassigned) [Example 193B, 7-(2,4-difluorophenyl)-N2-(3-methoxy-4-(3-methyl-1H-1,2,4-triazol-1-yl)phenyl)-N4-methyl-6,7-dihydro-5H-cyclopenta[d]pyrimidine-2,4-diamine] | 0.01 to 0.1
CNc1nc(Nc2ccc(-n3cnc(Cl)c3)c(OC)c2)nc2c1CCCC2c1ccccc1 (stereo not shown) [Example 203A, N2-(4-(4-chloro-1H-imidazol-1-yl)-3-methoxyphenyl)-N4-methyl-8-phenyl-5,6,7,8-tetrahydroquinazoline-2,4-diamine] | 0.0015 to 0.0099

Same assay, conditions: H4 APP751 SWE clone 8.20 cells, 19 h incubation; read-out: Activity Rating (Aβ42 cellular IC50), numeric value

SMILES | IC50 [µM]
CNc1nc(Nc2ccc(C#N)cc2)nc2c1CCC2c1ccccc1 (stereo not shown) [Example 227, 4-(4-(methylamino)-7-phenyl-6,7-dihydro-5H-cyclopenta[d]pyrimidin-2-ylamino)benzonitrile] | 0.012

Reference: patent US8637525B2, “Compounds for the reduction of beta-amyloid production” (Bristol-Myers Squibb Company, priority 2009, dated 2014)
